Data taken from US12383566B2, “Inhibition of SLC transporter activity or expression to attenuate anthracycline-induced cardiotoxicity” (Northwestern University, priority 2021, dated 2025).

Columns and labels:
hiPSC-CMs [1] = assay: Validation of top FDA-approved cardioprotectants against 10 log-doses of doxorubicin (viability LD50); format: cell-based, human; conditions: drug 3 μM, 72 h
Experimental: (§1) FIGS. 5A, 5B, 5C, 5D, 5E, 5F, and 5G. […] All drugs were used at 3 μM. […] LD50, median lethal dose. […] F, Ventricular fractional shortening at baseline, 1-, 2-, 3-weeks post treatment. […] For (D and G) log-logistic non-linear regression model was used to estimate the value of the four parameters, and t-statistic was used to test for significant difference in LD50 between different groups.
(§2) Next, we sought to expand our screening for novel cardioprotectants by testing the cardioprotective role of the Prestwick drug library that includes 1219 drugs.
(§3) 384-well plate-based cell viability, caspase 3/7 activity assays. […] Luminescence was measured using a VarioSkan Lux Multi-Mode Reader (Thermo Scientific) with an integration time of 0.25 sec. Apoptosis was measured using Caspase 3/7-Glo (Promega) respectively according to manufacturer's instructions with an integration time of 1 sec. 10 μM staurosporine (MedChemExpress) was used as a positive control. Data were analyzed using Prism 7.0 software (GraphPad) using standard dose-response guidelines.

[2] = tested on: eight cancer cell lines (HEPG2, DLD1, LNCAP, SK-UT-1, HeLa, U2OS, Hs 578T, MDA-MB-231) and MCF breast cancer cell line; assay: Cell viability of cancer cell lines after doxorubicin and desipramine co-treatment; format: cell-based, human; conditions: eight cancer cell lines (breast, liver, colorectal, prostate, uterus, cervix, bone)
Experimental: as §1
Breast cancer cell lines.

[3] = chronic use; cited from earlier work
hiPSC-CMs [4] = assay: Prestwick drug library screening for cardioprotection against DOX (10 μM, 72 h) by cell viability; format: cell-based, human
Experimental: as §1, §2, §3

sodium channel = conditions: among its group (tricyclic antidepressants); cited from earlier work
hiPSC-CMs [5] = assay: Flow cytometry-based doxorubicin uptake quantification (DOX intrinsic fluorescence); format: cell-based, human; conditions: drug 3 μM, doxorubicin 3 μM
Experimental: Patient-specific doxorubicin-induced cardiotoxicity (DIC) characterization.
Flow cytometry. hiPSCs were dissociated with TrypLE Express (Gibco) for 3 min at RT and 1×10^6 cells were transferred to flow cytometry tubes (Falcon). For staining of surface marker, cells were stained 5 mg ml^−1 (0.5%) BSA (Sigma) in DPBS using 1:20 mouse IgG3 SSEA4-488 (BD Biosciences, 560308) for 30 min at RT then washed twice in DPBS by centrifugation. For intracellular staining, cells were fixed with 4% PFA for 20 min at RT, washed twice with DPBS, and permeabilized with 1% saponin for 15 min at RT, and stained using 1:20 mouse IgG1 POU5F1-647 (BD Biosciences, 560307), and mouse IgG1 NANOG-647 (BD Biosciences, 561300) for 30 min at RT then washed. Isotype controls mouse IgG3-488 (BD Biosciences, 563636) and mouse IgG1-647 (BD Biosciences, 565571) were used to establish gating. Cardiomyocytes were dissociated with Liberase TH as described above, fixed and permeabilized as above, and stained using 1:100 mouse monoclonal IgG1 TNNT2-647 (BD Biosciences, 565744) for 30 min at RT and washed again. Isotype controls mouse IgG1-647 (BD Biosciences, 565571) were used to establish gating. […] All cells were analyzed using a CytoFLEX (Beckman Coulter) with CytExpert 2.0 software.
Flow cytometry-based doxorubicin uptake quantification. On day 14, cardiomyocytes were dissociated and then plated on 12-well plate (2×10^6 per well). […] Cells auto-fluorescence was assayed before doxorubicin treatment and serves as baseline fluorescence.

[6] = in vivo; cited from earlier work
[7] = tested on: Mouse model of doxorubicin-induced cardiomyopathy; assay: Mouse model of doxorubicin-induced cardiomyopathy, echocardiographic evaluation; format: in vivo, C57BL/6J mice; conditions: desipramine 20 mg kg^−1 day^−1 infusion, doxorubicin 3 mg kg^−1 ip twice weekly, three weeks, P<0.05
From the text: Procedures followed were in accordance with Stanford University's institutional guidelines. […] For the control group, we treated mice with corn oil in the same schedule as desipramine administration. We recorded an echocardiogram once a week (day 0, day 7, day 14, and day 21) and terminated the experiment at day 21.
For the control group, we treated mice with corn oil in the same schedule as desipramine administration. We recorded an echocardiogram once a week (day 0, day 7, day 14, and day 21) and terminated the experiment at day 21.
Echocardiographic evaluation. Mice were studied at baseline and weekly during the protocol under light anesthesia with isoflurane (induction 3%, maintenance 1.5%). 2D images in the parasternal short axis were obtained with a GE Vivid 7 ultrasound system (GE Healthcare) equipped with a 13 MHz transducer. Left ventricular end-systolic (LVESD) and end-diastolic (LVEDD) dimensions were measured and left ventricular fractional shortening (FS) was calculated.

Structure (SMILES): CNCCCN1c2ccccc2CCc2ccccc21 [desipramine, 3-(5,6-dihydrobenzo[b][1]benzazepin-11-yl)-N-methylpropan-1-amine]
- LD50 of doxorubicin with cardioprotective drug co-treatment (hiPSC-CMs [1]): 10.66 µM
- effect of co-treatment on anticancer efficacy of DOX [2]: did not impede the anticancer efficacy of DOX
- cardiotoxicity [3]: causing cardiotoxicity when used chronically
- rank among cardioprotective drugs in Prestwick library screening (hiPSC-CMs [4]; drug 3 μM (24 h pre-treatment + co-treatment)): top ten significant cardio-protectants
- protection against DOX-induced cardiomyocyte death (hiPSC-CMs [4]; drug 3 μM, vs DOX alone, P=0.007): 2.5 fold
- sodium channel blockade (sodium channel): most potent sodium channel blocker among its group
- DOX uptake in cells co-treated with drug plus doxorubicin as compared to doxorubicin only (hiPSC-CMs [5]; after 1 h (P=0.008)): significantly lower
- DOX uptake in cells co-treated with drug plus doxorubicin as compared to doxorubicin only (hiPSC-CMs [5]; after 3 h (P=0.04)): significantly lower
- typical therapeutic concentration [6]: 100 to 300 ng/mL
- cardiac function (fractional shortening) attenuation by doxorubicin with drug compared with vehicle [7]: significantly less attenuated
